# Test results published in US20220040129A1, “TREATMENT OF HYPERAMMONEMIA IN PATIENTS WITH RENAL INSUFFICIENCY” (RECORDATI S.p.A., priority 2019, published 2022).
# Like-named read-outs stand apart in the source and are kept apart here.
# What was measured:
# [1] = test system: plasma ammonia; assay: Retrospective review of NAGS deficiency patients: plasma ammonia levels; type: in vivo, human; details: for Plasma ammonia, Mean (SD) / Plasma ammonia, Median / Plasma ammonia, Range: NAGS deficiency patients
# Method: Treatment with carglumic acid was divided in two regimens. For acute treatment, patients received a total daily dose of 100 mg/kg/day to 250 mg/kg/per day primarily administered in 2 to 4 divided doses for the first few days of treatment. For maintenance treatment, the dosage was reduced over time based on plasma ammonia level and clinical responses.
# Short-term efficacy was evaluated using mean and median change in plasma ammonia levels from baseline to days 1 to 3. Persistence of efficacy was evaluated using long-term mean and median change in plasma ammonia level.
# All 13 patients had abnormal plasma ammonia levels at baseline. […] Long-term efficacy was measured using the last reported plasma ammonia level for each of the 13 patients analyzed (median length of treatment was 6 years; range 1 to 16 years). The mean and median plasma ammonia levels were 23 micromol/L and 24 micromol/L, respectively, after a mean treatment duration of 8 years (Table 5).
# [2] = CARIV-A-001 Part A: single ascending IV doses over 20 minutes in healthy subjects; type: in vivo, human; details: for CL renal / AUC(0-t) / AUC(0-inf) / clearance / Cmax / half-life / Vd: both sexes, human, iv; for CL renal: plasma and urine; for AUC(0-t) / AUC(0-inf) / clearance / Cmax / half-life / Vd: plasma
# Method: This study was conducted in healthy male or female volunteers, at a single site to assess the safety and PK profile of an IV formulation of Carbaglu and to determine the absolute bioavailability of the current marketed oral formulation of Carbaglu.
# The levels of CGA in plasma and urine were analysed using a fully validated method, which included LC-MS/MS analysis. The PK data were analysed based on a non-compartmental model. A model-based approach was implemented for the characterization of the PK properties of the IV formulation in order to estimate the level of PK exposure after different doses administered with different duration of infusion. […] The PK parameters were determined using SAS (version 9.3), and modelling of the PK data was performed using NONMEM (version 7.3, ICON Solutions). PART A: Mono-Centre, Randomized, Successive Groups, Double-Blind, Placebo-Controlled Study in Healthy Male and Female Subjects
# Each cohort included a minimum of 3 and maximum of 5 subjects of each of the two genders.
# Three loading doses of CGA over 20 minutes were tested by IV administration, 3.5 mg/kg, 5.0 mg/kg and 7.5 mg/kg. For each of these three doses, 6 subjects were administered CGA and 2 received the placebo.
# Plasma concentrations of CGA were measured at 18 timepoints, including a sample preceding the start of the administration, and then between 10 minutes and 48 hours following the initiation of the IV infusion.
# The PK analysis of Carbaglu was conducted by using standard non-compartmental approach.
# [3] = Long-term (mean 8 years), last available value on treatment
smiles,measurement,setting,value
"NC(=O)N[C@@H](CCC(=O)O)C(=O)O [carglumic acid, N-carbamoyl-L-glutamic acid]",Differences in clinical response between adults and pediatric NAGS deficiency patients,[1]; 23 NAGS deficiency patients,no apparent differences
same,"Plasma ammonia, Mean (SD)",[1]; Day 1 of treatment,181 (358) micromole/L
same,"Plasma ammonia, Median",[1]; Day 1 of treatment,65 µmol/L
same,"Plasma ammonia, Range",[1]; Day 1 of treatment,25 to 1190 µmol/L
same,"Plasma ammonia, Mean (SD)",[1]; Day 2 of treatment,69 (78) micromole/L
same,"Plasma ammonia, Median",[1]; Day 2 of treatment,44 µmol/L
same,"Plasma ammonia, Range",[1]; Day 2 of treatment,11 to 255 µmol/L
same,"Plasma ammonia, Mean (SD)",[1]; Day 3 of treatment,27 (11) micromole/L
same,"Plasma ammonia, Median",[1]; Day 3 of treatment,25 µmol/L
same,"Plasma ammonia, Range",[1]; Day 3 of treatment,12 to 42 µmol/L
same,"Plasma ammonia, Mean (SD)",[1]; [3],23 µmol/L
same,"Plasma ammonia, Median",[1]; [3],24 µmol/L
same,"Plasma ammonia, Range",[1]; [3],9 to 34 µmol/L
same,"Plasma ammonia, Mean (SD)","[1]; Long-term (mean 8 years), last available value on treatment, listed as Carglumic Acid",23 (7) micromole/L
same,Plasma ammonia levels by day 3,"[1]; patients for whom data were available, normal range 5 to 50 micromol/L",normal plasma ammonia levels were attained
same,"Plasma levels observed, up to","[2]; IV administration over 20 minutes, healthy volunteers","up to 26,500 ng/mL"
same,"Dose dependence of AUCinf, AUClast and Cmax",[2]; IV doses in the range of 3.5 mg/kg to 7.5 mg/kg,increase linearly
same,Percent of dose excreted in urine,"[2]; IV over 20 minutes, stable across the doses evaluated",~75%
same,Concentration up to which linearity of PK was shown,[2]; Part A,up to 26.5 μg/mL
same,Dose excreted in the urine as parent compound over 24 hours,[2]; after IV administration,75 % of the dose
same,CL renal,"[2]; 3.5 mg/kg, IV over 20 minutes, 3.5 mg/kg, read-out: Renal Clearance (RCl), Mean",4.33 mL/min/kg
same,CL renal,"[2]; 3.5 mg/kg, IV over 20 minutes, 3.5 mg/kg, read-out: Renal Clearance (RCl), Median",4.17 mL/min/kg
same,CL renal,"[2]; 3.5 mg/kg, IV over 20 minutes, 3.5 mg/kg, read-out: Renal Clearance (RCl), Range",3.33 to 5 mL/min/kg
same,CL renal,"[2]; 5 mg/kg, IV over 20 minutes, 5.0 mg/kg, read-out: Renal Clearance (RCl), Mean",3.83 mL/min/kg
same,CL renal,"[2]; 5 mg/kg, IV over 20 minutes, 5.0 mg/kg, read-out: Renal Clearance (RCl), Median",3.67 mL/min/kg
same,CL renal,"[2]; 5 mg/kg, IV over 20 minutes, 5.0 mg/kg, read-out: Renal Clearance (RCl), Range",3.17 to 5.17 mL/min/kg
same,CL renal,"[2]; 7.5 mg/kg, IV over 20 minutes, 7.5 mg/kg, read-out: Renal Clearance (RCl), Mean",4.33 mL/min/kg
same,CL renal,"[2]; 7.5 mg/kg, IV over 20 minutes, 7.5 mg/kg, read-out: Renal Clearance (RCl), Median",4.17 mL/min/kg
same,CL renal,"[2]; 7.5 mg/kg, IV over 20 minutes, 7.5 mg/kg, read-out: Renal Clearance (RCl), Range",3.5 to 5.33 mL/min/kg
same,CL renal,"[2]; IV over 20 minutes, stable across doses, read-out: Renal clearance (converted)",~4.17 mL/min/kg
same,CL renal,"[2]; after IV administration, read-out: Renal clearance, median",265 mL/min
same,CL renal,"[2]; after IV administration, read-out: Renal clearance, range",183 to 467 mL/min
same,AUC(0-t),"[2]; 3.5 mg/kg, IV over 20 minutes, 3.5 mg/kg, read-out: AUC24h, Mean",9850 ng·h/mL
same,AUC(0-t),"[2]; 3.5 mg/kg, IV over 20 minutes, 3.5 mg/kg, read-out: AUC24h, Median",9690 ng·h/mL
same,AUC(0-t),"[2]; 3.5 mg/kg, IV over 20 minutes, 3.5 mg/kg, read-out: AUC24h, Range",8990 to 11000 ng·h/mL
same,AUC(0-inf),"[2]; 3.5 mg/kg, IV over 20 minutes, 3.5 mg/kg, read-out: AUCinf, Mean",11000 ng·h/mL
same,AUC(0-inf),"[2]; 3.5 mg/kg, IV over 20 minutes, 3.5 mg/kg, read-out: AUCinf, Median",10900 ng·h/mL
same,AUC(0-inf),"[2]; 3.5 mg/kg, IV over 20 minutes, 3.5 mg/kg, read-out: AUCinf, Range",9740 to 12500 ng·h/mL
same,AUC(0-t),"[2]; 3.5 mg/kg, IV over 20 minutes, 3.5 mg/kg, read-out: AUClast-timepoint, Mean",10200 ng·h/mL
same,AUC(0-t),"[2]; 3.5 mg/kg, IV over 20 minutes, 3.5 mg/kg, read-out: AUClast-timepoint, Median",10100 ng·h/mL
same,AUC(0-t),"[2]; 3.5 mg/kg, IV over 20 minutes, 3.5 mg/kg, read-out: AUClast-timepoint, Range",8990 to 11500 ng·h/mL
same,clearance,"[2]; 3.5 mg/kg, IV over 20 minutes, 3.5 mg/kg, read-out: Clearance (Cl), Mean",5.33 mL/min/kg
same,clearance,"[2]; 3.5 mg/kg, IV over 20 minutes, 3.5 mg/kg, read-out: Clearance (Cl), Median",5.33 mL/min/kg
same,clearance,"[2]; 3.5 mg/kg, IV over 20 minutes, 3.5 mg/kg, read-out: Clearance (Cl), Range",4.67 to 6 mL/min/kg
same,Cmax,"[2]; 3.5 mg/kg, IV over 20 minutes, 3.5 mg/kg, read-out: Cmax, Mean",11400 ng/mL
same,Cmax,"[2]; 3.5 mg/kg, IV over 20 minutes, 3.5 mg/kg, read-out: Cmax, Median",11400 ng/mL
same,Cmax,"[2]; 3.5 mg/kg, IV over 20 minutes, 3.5 mg/kg, read-out: Cmax, Range",10700 to 12300 ng/mL
same,half-life,"[2]; 3.5 mg/kg, IV over 20 minutes, 3.5 mg/kg, read-out: T1/2, Mean",20.6 h
same,half-life,"[2]; 3.5 mg/kg, IV over 20 minutes, 3.5 mg/kg, read-out: T1/2, Median",21.1 h
same,half-life,"[2]; 3.5 mg/kg, IV over 20 minutes, 3.5 mg/kg, read-out: T1/2, Range",6.6 to 36.1 h
same,Vd,"[2]; 3.5 mg/kg, IV over 20 minutes, 3.5 mg/kg, read-out: Volume of Distribution (Vd), Mean",9.28 L/kg
same,Vd,"[2]; 3.5 mg/kg, IV over 20 minutes, 3.5 mg/kg, read-out: Volume of Distribution (Vd), Median",8.75 L/kg
same,Vd,"[2]; 3.5 mg/kg, IV over 20 minutes, 3.5 mg/kg, read-out: Volume of Distribution (Vd), Range",3.26 to 15.5 L/kg
same,AUC(0-t),"[2]; 5 mg/kg, IV over 20 minutes, 5.0 mg/kg, read-out: AUC24h, Mean",14800 ng·h/mL
same,AUC(0-t),"[2]; 5 mg/kg, IV over 20 minutes, 5.0 mg/kg, read-out: AUC24h, Median",14900 ng·h/mL
